This note sets out measurements from PubChem BioAssay AID1850 (Southern Research Specialized Biocontainment Screening …, 2009).

For this assay, the system named is Salmonella Typhi PhoP-promoter GFP reporter, fluorescence, 4 h. Briefly: PhoP regulon inhibitors, Salmonella typhi PhoP promoter GFP reporter, confirmatory (AID 1850).
As a reminder, the IC50 is the point on the concentration scale where inhibition reaches its midpoint. Take `Cc1ccc(-n2c(-c3ccc(Br)cc3)c[n+]3c2CCc2ccc4cccnc4c2-3)cc1`: the IC50 was 62.2 µM.
To `CCCCCc1ccc(OCCCC[n+]2cccc(C)c2)c(CCCCC)c1` belongs 59.1 µM.
Consider `CCn1cc(C(=O)O)c(=O)c2cc(F)c(N3CCN(C(=S)NC(=O)c4cccc(F)c4)CC3)cc21`, for which the IC50 is 18.6 µM.
As to `Cc1nc(N)c(Cc2ccc(Cl)cc2Cl)c(N)n1`, the IC50 is 44.2 µM.
Take `C#CCOCCOCCOCCNc1nc(N2CCN(C(=O)CCCCCCCCCCNC(=O)Cn3cc(CCCCCN)nn3)CC2)nc(N2CCN(C(=O)CCCCCCCCCCNC(=O)[C@H]([C@@H](C)CC)n3cc(CCCCCN)nn3)CC2)n1`: the IC50 is 38.9 µM.
For the compound `CNCC[C@H](Oc1cccc2ccccc12)c1cccs1`, the IC50 was 82 µM.
For the compound `C#CCOCCOCCOCCNc1nc(N2CCN(C(=O)[C@H](Cc3ccc(O)cc3)n3cc([C@@H](N)CC(C)C)nn3)CC2)nc(N2CCN(C(=O)[C@H](Cc3cc4ccccc4[nH]3)n3cc([C@@H](N)CC(C)C)nn3)CC2)n1`, the IC50 was 105 µM.
The value for `Cc1cc(C)c2sc(N(CCCN(C)C)C(=O)COc3ccc(Cl)cc3)nc2c1` was 30.8 µM; that for `CC(NCc1ccc(Cl)c(Cl)c1)C(O)c1ccccc1` (centres undefined) was 61.6 µM.
To `Cc1cccc(Nc2c3c(nc4ccccc24)CCC3)c1` belongs 34.7 µM; to `Oc1ccc(C2NCc3ccccc3-n3cccc32)cc1Cl` (centres undefined), 150 µM; to `C#CCOCCOCCOCCNc1nc(N2CCN(C(=O)CCCCCCCCCCNC(=O)[C@H](CCCCN)n3cc(C)nn3)CC2)nc(N2CCN(C(=O)CCCCCCCCCCNC(=O)[C@@H]([C@H](C)CC)n3cc(CCCCCN)nn3)CC2)n1`, 33 µM.
With `CN(C)CCNC(=O)/C(=C/c1ccc(-c2ccc(Cl)cc2)o1)NC(=O)c1ccccc1`, the IC50 was 78 µM.
For `Cc1ccc(S(=O)(=O)CCC(=O)c2ccc(O)cc2O)cc1`, the IC50 is 75.7 µM.
`COc1cccc(Nc2cc(C)nc3ccccc23)c1`: the IC50 is 69.6 µM.
In the case of `CCn1cc(C(=O)O)c(=O)c2cc(F)c(N3CCN(C(=S)NC(=O)c4cccc(C)c4)CC3)cc21`, the IC50 was 16 µM.
The value for `CN(C)CC/C=C1\c2ccc(F)cc2Sc2cc(F)c(Cl)cc21` was 32.4 µM; that for `CC[C@@H](C)[C@H](CNC)NC[C@@H](Cc1cccc2ccccc12)NCCc1cccc(C(F)(F)F)c1` was 19.9 µM; that for `O=C(Oc1ccccc1)c1cc2ccccc2o1` was 38.1 µM.
Consider `O=C(N/N=C/c1ccc([N+](=O)[O-])o1)C(O)c1ccccc1` (centres undefined), for which the IC50 is 35.2 µM.
Turning to `COC(=O)N/N=C/c1c[n+]([O-])c2ccccc2[n+]1[O-]`, the IC50 is 49.2 µM.
Regarding `CC(Nc1nc(N2CCCC2)nc2ccccc12)c1ccccc1` (centres undefined), the IC50 is 69.2 µM.
The value for `Cc1cc(N/N=C/c2ccc(O)cc2)c2cccc(C)c2n1` was 39.9 µM.
To `Cc1cc([N+](=O)[O-])cc(/C=N\NC(=O)C2COc3ccccc3O2)c1O` (centres undefined) belongs 50.7 µM.
In the case of `COc1ccccc1Nc1c2ccccc2nc2ccccc12`, the IC50 is 36.3 µM.
Consider `NC1=NC[C@H](Cc2ccccc2)N1CCCCC1CCCCC1`, for which the IC50 is 22 µM.
The value for `O=C(Nc1cccc(Br)c1)c1cc2ccccc2o1` was 25.4 µM; that for `Cc1cc(C(C)(C)CC(C)(C)C)ccc1OCCOCC[N+](C)(C)Cc1ccccc1` was 18.2 µM; that for `COc1ccc(/C=N/Nc2cc(C)nc3c(C)cccc23)cc1` was 19.3 µM.
As for `Cc1ccccc1C(=O)NNC(=S)NC(=O)COc1ccccc1`, the IC50 is 132 µM.
Take `CCCCOCCCNc1ncnc2c1[nH]c1ccccc12`: the IC50 is 71.1 µM.
The value for `Cc1ccc(C)c(N/C(N)=N/c2nc(C)cc(C)n2)c1` was 141 µM; that for `Cc1occc1C(=O)N/N=C/c1cccs1` was 69.7 µM; that for `Cn1c(SCC(=O)N/N=C/c2ccc([N+](=O)[O-])s2)nnc1-c1ccc(Cl)cc1` was 35.8 µM.
The value for `CCCCN(CCCC)C(=O)c1cn(CC)c2cc(N3CCN(C)CC3)c(F)cc2c1=O` was 4.23 µM.
With `COC(=O)C(C)NC(=S)N1CCN(c2c(F)cc3c(=O)c(C(=O)O)cn(C4CC4)c3c2OC)CC1C` (centres undefined), the IC50 was 17.1 µM.
The value for `CN(Cc1ccccc1)CC(O)COc1ccc(CNCc2ccc(Cl)s2)cc1` (centres undefined) was 124 µM; that for `O=C(Nc1cccc(Cl)c1)Nc1nccs1` was 40 µM.
To `Cn1ncnc2c(=O)n(C)c(=O)nc1-2` belongs 1.29 µM; to `CC(C(=O)c1ccc(-c2ccccc2)cc1)[n+]1cccc(NC(=O)c2ccccc2)c1` (centres undefined), 20.4 µM.
For the compound `CC[n+]1c(/C=C/N(C)c2ccccc2)n(-c2ccccc2)c2ccc(-c3nc4ccccc4s3)cc21`, the IC50 is 5.9 µM.
To `CCOc1cccc(CNCCc2c(C)[nH]c3ccc(OC(F)(F)F)cc23)c1O` belongs 39.7 µM.
To `CCC[C@H](CN[C@@H](CNC)[C@H](C)CC)NCCc1cc(C(F)(F)F)cc(C(F)(F)F)c1` belongs 34.6 µM; to `O=C(N/N=C/c1ccc([N+](=O)[O-])o1)C1CCCC1`, 35.5 µM; to `CCC(C)(C)c1ccc(OCCCC[n+]2ccccc2)c(C(C)(C)CC)c1`, 19.2 µM.
The value for `OC(CNCCc1ccc(C(F)(F)F)cc1)COC(c1ccccc1)c1ccccc1` (centres undefined) was 25.8 µM; that for `Cc1ccc(Nc2c3c(nc4ccccc24)CCC3)cc1` was 19.1 µM.
Take `O=c1cc(-c2ccc(O)cc2)oc2c(O)c(O)c(O)c(O)c12`: the IC50 is 35.6 µM.
To `C#CCOCCOCCOCCNc1nc(N2CCN(C(=O)CCCCCCCCCCNC(=O)Cn3cc(CCCCCN)nn3)CC2)nc(N2CCN(C(=O)CCCCCCCCCCNC(=O)[C@H]([C@@H](C)CC)n3cc(CCCCN=C(N)N)nn3)CC2)n1` belongs 28.3 µM; to `Cc1nnc(N/N=C/c2ccccn2)[nH]c1=O`, 32.8 µM; to `Fc1ccc(Nc2nc(NCc3ccco3)c3ccccc3n2)cc1`, 3.81 µM.
In the case of `Cc1ccccc1C(=O)N/N=C/c1ccc([N+](=O)[O-])s1`, the IC50 is 35.5 µM.
The value for `COc1cccc(NC2=NC3(CCCCC3)N=C(N)N2)c1` was 75.6 µM.
Regarding `Cc1ccc(-c2csc(NC(=O)C[n+]3cc(-c4ccc(C)cc4)n4c3CCC4)n2)cc1`, the IC50 is 25 µM.
In the case of `O=[N+]([O-])c1cc(CN2CCN(c3cccc(C(F)(F)F)c3)CC2)c2cccnc2c1O`, the IC50 was 20.8 µM.
To `Cc1cccc(OCC(O)Cn2c(=N)n(CCN3CCCCC3)c3ccccc32)c1` (centres undefined) belongs 78.3 µM.
To `CO/N=C(/C(=O)N[C@@H]1C(=O)N2C(C(=O)O)=CCS[C@H]12)c1cnc(N)s1` belongs 18.6 µM; to `CN1CCN(C2Cc3cc(Cl)ccc3Sc3cc(F)ccc32)CC1` (centres undefined), 35 µM.
With `C#CCOCCOCCOCCNc1nc(N2CCN(C(=O)CCCCCCCCCCNC(=O)[C@H](CCCCN)n3cc(C)nn3)CC2)nc(N2CCN(C(=O)CCCCCCCCCCNC(=O)[C@H](CO)n3cc(CCCSC)nn3)CC2)n1`, the IC50 is 113 µM.
To `Cc1cc(OCCCCCN2CCCC2)ccc1Cl` belongs 122 µM; to `OC(CNCCc1ccc(Cl)cc1Cl)COc1ccccc1` (centres undefined), 71 µM; to `CCCCCC[N+](C)(C)CC/C=C1/c2ccccc2Sc2ccc(Cl)cc21`, 38.1 µM.
Take `c1ccc(Sc2cccc3ccccc23)c(CNC2=NCCN2)c1`: the IC50 is 68.3 µM.
The value for `O=[N+]([O-])/C=C/c1cc2ccccc2[nH]1` was 95 µM.
To `O=C(Nc1nnc(C2COc3ccccc3O2)o1)c1ccc(F)cc1` (centres undefined) belongs 36.5 µM; to `OCCCCNCc1ccc(OCc2ccc(Cl)cc2Cl)cc1`, 77.3 µM.
To `COc1ccc(/C=N/Nc2cc(C)nc3ccccc23)cc1` belongs 10.4 µM; to `CN1CCN(c2cc3c(cc2F)c(=O)c(C(=O)O)cn3CCF)CC1`, 0.31 µM; to `Cc1c(N=Cc2cc(Br)cc(Br)c2O)cccc1C(=O)O`, 40.9 µM.
In the case of `O=C(Nc1cccc([N+](=O)[O-])c1)Nc1cccs1`, the IC50 was 24.7 µM.
To `CCCCCCCCCCC[N+](C)(C)CC/C=C1/c2ccccc2Sc2ccc(Cl)cc21` belongs 39 µM.
To `CN(C)CCCNC(=S)NCC(c1ccc(Cl)cc1Cl)c1c[nH]c2ccccc12` (centres undefined) belongs 52.5 µM.
To `CC(=O)Nc1ccc(S(=O)(=O)NNc2cccc(C)c2)cc1` belongs 39.2 µM.
For the compound `Nc1ncncc1-c1ccc([N+](=O)[O-])cc1`, the IC50 was 80.1 µM.
For the compound `NC1=NC[C@H](c2ccccc2)N1CCc1cc(C(F)(F)F)cc(C(F)(F)F)c1`, the IC50 was 75 µM.
To `CCc1ccc(N2CC(C(=O)N/N=C/c3cc([N+](=O)[O-])ccc3O)CC2=O)cc1` (centres undefined) belongs 55.8 µM; to `NC1CCN(c2c(F)cc3c(=O)c(C(=O)O)cn(C4CC4)c3c2Cl)C1` (centres undefined), below 0.23 µM.
The value for `CCN(CC)CCn1c(=N)n(CC(O)COc2cccc(C)c2)c2ccccc21` (centres undefined) was 135 µM; that for `Fc1ccc(Nc2nnc(C(F)(F)F)s2)cc1Cl` was 36.8 µM; that for `Cc1ccc(-c2c[n+](Cc3ccc(Cl)c(Cl)c3)c3n2CCC3)cc1` was 33.3 µM.
To `Cc1ccc(C)c(NC(=O)CCC(=O)N/N=C/c2cc([N+](=O)[O-])ccc2O)c1` belongs 60.6 µM; to `O=C(Nc1cccc(N=Cc2cc(Cl)cc(Br)c2O)c1)c1ccco1`, 96.9 µM.
Regarding `CNC[C@H](CC1CCCCC1)NC[C@H](Cc1ccccc1)NCCC12CC3CC(CC(C3)C1)C2`, the IC50 was 12.8 µM.
In the case of `C[N+]12CN3CN(CN(C3)C1)C2`, the IC50 was 86.3 µM.
In the case of `O=C(N/N=C\c1cccc([N+](=O)[O-])c1O)C1COc2ccccc2O1` (centres undefined), the IC50 is 27.4 µM.
To `CCCCCCCCCCCCCCCC[n+]1ccc(C(N)=O)cc1` belongs 10.5 µM.
With `CC1CC(=O)c2c(cc3c(-c4c(O)cc(O)c5c(O)c6c(cc45)OC(C)CC6=O)c(O)cc(O)c3c2O)O1` (centres undefined), the IC50 is 27.3 µM.
Turning to `Nc1nc(F)nc2c1ncn2[C@@H]1O[C@H](CO)[C@@H](O)[C@H]1O`, the IC50 was 32.9 µM.
For `COc1cc([N+](=O)[O-])cc(/C=N/NC(=O)c2cccnc2)c1O`, the IC50 was 82.4 µM.
To `O=c1c2ccccc2[nH]c2ccccc12` belongs 36.2 µM; to `O=c1c2ccccc2[nH]c2ccc(F)cc12`, 75.7 µM; to `CCN1CCN(C(=O)c2cc3cc(F)ccc3[nH]2)CC1`, 102 µM.
To `COc1ccc(/C=C/c2cc[n+](C(=O)Cc3ccccc3)cc2)cc1` belongs 118 µM; to `CN1CCN(CCCN2c3ccccc3Sc3ccc(C(F)(F)F)cc32)CC1`, 46.4 µM.
